This note sets out measurements from patent publication US20160039802A1, “3-PYRIMIDIN-4-YL-OXAZOLIDIN-2-ONES AS INHIBITORS OF MUTANT IDH” (NOVARTIS AG, priority 2013, published 2016).

The target of one assay is T1, IDH1 (R132H) mutant (Homo sapiens, UniProt O75874, R132H).
T1 construct: His6 with PreScission site (N, cleaved yes); made in house; host or cells: E. coli Rosetta 2(DE3)
Kind of assay: Fluorescence biochemical assay (NADPH oxidation). The conditions noted are these: mIDH R132H 10 nM, 10 μM NADPH, 100 μM α-KG; range where run multiple times. As for the experimental part:
The IDH1 (R132H) mutant catalyzes the reduced form of NADP+ (NADPH) and α-ketoglutarate (α-KG) to form nicotinamide adenine dinucleotide phosphate (NADP+) and R(−)-2-hydroxyglutarate (2HG). […] Reactions were monitored using the Perkin-Elmer Envision, Model 2101. […] The final reaction mixture contained 2.5% DMSO and test compounds with concentrations ranging 0.0000008-25 μM. The IDH1 (R132H) enzyme was used at a final concentration of 10 nM. Curve fitting for dose response […] determinations was done in the Helios module of the software package DAVID. The 4-parameter logistic model was used: y=min+((max−min)/1+(x/IC50)^shape)

The next assay concerns the target T2, Mutant IDH1 R132H (Homo sapiens, UniProt O75874, R132H).
T2 construct: His6 with PreScission site (N, cleaved yes); made in house; host or cells: E. coli Rosetta 2(DE3)
In words: Mutant IDH1 biochemical assay: LC-MS detection of 2-HG. Also: mIDH R132H 0.25 nM, 5 µM NADPH. The conditions noted are these: mIDH R132H […], 5 uM NADPH, 100 uM alpha-KG, 45 minutes incubation; range where run multiple times. An excerpt: Mutant IDH1 biochemical Sssay: LC-MS Detection of 2-HG.

T2 sequence (O75874 whole entry R132H): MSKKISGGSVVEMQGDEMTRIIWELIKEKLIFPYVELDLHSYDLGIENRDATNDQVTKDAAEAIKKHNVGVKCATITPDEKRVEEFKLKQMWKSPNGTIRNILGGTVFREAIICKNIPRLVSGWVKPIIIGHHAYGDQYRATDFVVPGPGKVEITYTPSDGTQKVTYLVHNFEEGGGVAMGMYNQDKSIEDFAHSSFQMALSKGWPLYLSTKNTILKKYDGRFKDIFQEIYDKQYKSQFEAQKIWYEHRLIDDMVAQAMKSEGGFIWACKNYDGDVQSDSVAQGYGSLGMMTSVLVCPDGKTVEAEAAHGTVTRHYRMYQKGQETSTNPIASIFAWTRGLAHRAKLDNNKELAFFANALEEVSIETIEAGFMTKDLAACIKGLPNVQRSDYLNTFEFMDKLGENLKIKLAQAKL
T1 sequence (O75874 whole entry R132H): as above

As to `Cc1cc(N2C(=O)OC[C@@H]2C2CC2)nc(N[C@@H](C)c2cc(-c3ccc(Cl)cc3)on2)n1` [Example 10, (S)-3-(2-(((S)-1-(5-(4-chlorophenyl)isoxazol-3-yl)ethyl)amino)-6-methylpyrimidin-4-yl)-4-cyclopropyloxazolidin-2-one], the IC50 is 71.6 nM against IDH1 (R132H) mutant and 22.8 nM on Mutant IDH1 R132H.

Turning to `Cc1cc(N2C(=O)OC[C@@H]2C2CC2)nc(N[C@@H](C)c2cn(-c3ccc(Cl)cc3)nn2)n1` [Example 11, (S)-3-(2-(((S)-1-(1-(4-chlorophenyl)-1H-1,2,3-triazol-4-yl)ethyl)amino)-6-methylpyrimidin-4-yl)-4-cyclopropyloxazolidin-2-one], the IC50 at IDH1 (R132H) mutant amounted to 35.9 nM; at Mutant IDH1 R132H it was 76.7 nM.

Turning to `Cc1cc(N2C(=O)OC[C@@H]2C2CC2)nc(N[C@@H](C)c2cnc(-c3ccc(Cl)cc3)s2)n1` [Example 9, (S)-3-(2-(((S)-1-(2-(4-chlorophenyl)thiazol-5-yl)ethyl)amino)-6-methylpyrimidin-4-yl)-4-cyclopropyloxazolidin-2-one], the half-maximal inhibitory concentration (IC50) was 105 nM against IDH1 (R132H) mutant and 43.7 nM at Mutant IDH1 R132H.

Consider `CC(Nc1nccc(N2C(=O)OC[C@@]2(C)C2CC2)n1)c1nc(-c2ccc(Cl)c(OC(F)(F)F)c2)no1` (single isomer, unassigned) [Example 65], for which the half-maximal inhibitory concentration (IC50) against IDH1 (R132H) mutant was over 25000 nM; at Mutant IDH1 R132H, over 5000 nM.

With `Cc1cc(N2C(=O)OC[C@@H]2C2CC2)nc(N[C@@H](C)c2nc(-c3ccc(Cl)cc3)no2)n1` [Example 8, (S)-3-(2-(((S)-1-(3-(4-chlorophenyl)-1,2,4-oxadiazol-5-yl)ethyl)amino)-6-methylpyrimidin-4-yl)-4-cyclopropyloxazolidin-2-one], the IC50 came out at 71.3 nM on IDH1 (R132H) mutant and 47.1 nM against Mutant IDH1 R132H.

`C[C@H](Nc1ncc(F)c(N2C(=O)OCC2(C)C2CC2)n1)c1ccc(CN2CCC(C)(N)CC2)c(F)c1` (single isomer, unassigned) [Example 60]: the half-inhibitory concentration (IC50) at IDH1 (R132H) mutant is 584 nM; against Mutant IDH1 R132H it was 1520 nM.

On to `CC(Nc1nccc(N2C(=O)OC[C@@]2(C)C2CC2)n1)c1nc(-c2ccc(Cl)c(OC(F)(F)F)c2)no1` (single isomer, unassigned) [Example 66], for which the IC50 on IDH1 (R132H) mutant is 34.3 to 72.5 nM; against Mutant IDH1 R132H it was 85 nM.

Consider `CC(Nc1nccc(N2C(=O)OC[C@]2(C)C2CC2)n1)c1nc(-c2ccc(Cl)cc2)no1` (single isomer, unassigned) [Example 50], for which the IC50 on IDH1 (R132H) mutant was 62.9 nM; on Mutant IDH1 R132H it was 20.2 to 26 nM.

Turning to `C[C@H](Nc1nccc(N2C(=O)OCC2(C)C2CC2)n1)c1ccc(F)cc1` (single isomer, unassigned) [Example 45], the figures for the IC50 at IDH1 (R132H) mutant and against Mutant IDH1 R132H were 235 to 253 nM and 189 nM, respectively.

Take `C[C@H](Nc1ncc(F)c(N2C(=O)OCC2(C)C2CC2)n1)c1ccc(CN2CCC(C)(N)CC2)cc1F` (single isomer, unassigned) [Example 62]: the IC50 at IDH1 (R132H) mutant was determined as 748 nM; against Mutant IDH1 R132H it was 1620 nM.

Turning to `C[C@H](Nc1nc(Cl)cc(N2C(=O)OC[C@@H]2C2CC2)n1)c1cc(F)c(-c2cnn(C)c2)cc1F` [Example 18, (S)-3-(6-chloro-2-(((S)-1-(2,5-difluoro-4-(1-methyl-1H-pyrazol-4-yl)phenyl)ethyl)amino)pyrimidin-4-yl)-4-cyclopropyl oxazolidin-2-one], the IC50 worked out at 23.8 nM on IDH1 (R132H) mutant and 15.8 nM against Mutant IDH1 R132H.

As to `C[C@H](Nc1nc(Cl)cc(N2C(=O)OC[C@@H]2C2CC2)n1)c1nc(-c2ccc(Cl)cc2)no1` [Example 3, (S)-3-(6-chloro-2-((S)-1-(3-(4-chlorophenyl)-1,2,4-oxadiazol-5-yl)ethylamino)pyrimidin-4-yl)-4-cyclopropyloxazolidin-2-one], the half-inhibitory concentration (IC50) is 26.9 nM at IDH1 (R132H) mutant and under 22.9 nM on Mutant IDH1 R132H.

`CNC1CCN(Cc2ccc([C@H](C)Nc3nccc(N4C(=O)OC[C@]4(C)C4CC4)n3)cc2F)CC1` [Example 40, (S)-4-cyclopropyl-3-(2-(((S)-1-(3-fluoro-4-((4-(methylamino)piperidin-1-yl)methyl)phenyl)ethyl)amino)pyrimidin-4-yl)-4-methyloxazolidin-2-one]: the results for the IC50 at IDH1 (R132H) mutant and against Mutant IDH1 R132H were 105 to 111 nM and 117 nM, respectively.

Consider `C[C@H](Nc1nccc(N2C(=O)OC[C@]2(C)C2CC2)n1)c1ccc(CN2CCC(N(C)C)CC2)c(F)c1` [Example 30, (S)-4-cyclopropyl-3-(2-(((S)-1-(4-((4-(dimethylamino)piperidin-1-yl)methyl)-3-fluorophenyl)ethyl)amino)pyrimidin-4-yl)-4-methyloxazolidin-2-one], for which the values for the half-maximal inhibitory concentration (IC50) against IDH1 (R132H) mutant and against Mutant IDH1 R132H were 122 to 172 nM and 211 to 271 nM, respectively.

Turning to `CC(Nc1nccc(N2C(=O)OC[C@]2(C)C2CC2)n1)c1nc(-c2ccc(Cl)c(OC(F)(F)F)c2)no1` (single isomer, unassigned) [Example 63], the IC50 against IDH1 (R132H) mutant was 1890 to 2120 nM; on Mutant IDH1 R132H, 2260 nM.

As for `C[C@H](Nc1nccc(N2C(=O)OC[C@]2(C)C2CC2)n1)c1ccc(CN2CCC(C)(O)CC2)cc1F` [Example 34, (S)-4-cyclopropyl-3-(2-(((S)-1-(2-fluoro-4-((4-hydroxy-4-methylpiperidin-1-yl)methyl)phenyl)ethyl)amino)pyrimidin-4-yl)-4-methyloxazolidin-2-one], the half-inhibitory concentration (IC50) on IDH1 (R132H) mutant was 41.8 to 53.1 nM; against Mutant IDH1 R132H it was 192 nM.

As for `Cc1cc(-c2cnc(C(C)Nc3nccc(N4C(=O)OC[C@]4(C)C4CC4)n3)nc2)ccc1F` (single isomer, unassigned) [Example 53], the IC50 against IDH1 (R132H) mutant is 36.2 nM; at Mutant IDH1 R132H, 22.7 to 35.4 nM.

In the case of `C[C@H](Nc1nc(Cl)cc(N2C(=O)OC[C@@H]2C2CC2)n1)c1ccc(-c2cnn(C)c2)cc1F` [Example 19, (S)-3-(6-chloro-2-(((S)-1-(2-fluoro-4-(1-methyl-1H-pyrazol-4-yl)phenyl)ethyl)amino)pyrimidin-4-yl)-4-cyclopropyloxazolidin-2-one], the 50% inhibitory concentration (IC50) at IDH1 (R132H) mutant turned out to be 44.3 nM; against Mutant IDH1 R132H, 57.2 nM.

Turning to `C[C@H](Nc1nccc(N2C(=O)OC[C@]2(C)C2CC2)n1)c1ccc(CN2CCC(N)CC2)c(F)c1` [Example 41, (S)-3-(2-(((S)-1-(4-((4-aminopiperidin-1-yl)methyl)-3-fluorophenyl)ethyl)amino)pyrimidin-4-yl)-4-cyclopropyl-4-methyloxazolidin-2-one], the 50% inhibitory concentration (IC50) on IDH1 (R132H) mutant was 194 to 473 nM; against Mutant IDH1 R132H, 376 nM.

On to `C[C@H](Nc1ncc(F)c(N2C(=O)OCC2(C)C2CC2)n1)c1ccc(CN2CCC(N(C)C)CC2)cc1F` (single isomer, unassigned) [Example 57], for which the IC50 on IDH1 (R132H) mutant was 290 nM; against Mutant IDH1 R132H, 868 nM.

As to `C[C@H](Nc1nc(Cl)cc(N2C(=O)OC[C@@H]2C2CC2)n1)c1ccc(C(C)(C)F)cc1F` [Example 20, (S)-3-(6-chloro-2-(((S)-1-(2-fluoro-4-(2-fluoropropan-2-yl)phenyl)ethyl)amino)pyrimidin-4-yl)-4-cyclopropyloxazolidin-2-one], the IC50 came to 218 nM at IDH1 (R132H) mutant and 83.9 nM on Mutant IDH1 R132H.

Regarding `C[C@H](Nc1nccc(N2C(=O)OC[C@]2(C)C2CC2)n1)c1ccc(CN2CCC(O)(C(F)(F)F)CC2)cc1F` [Example 35, (S)-4-cyclopropyl-3-(2-(((S)-1-(2-fluoro-4-((4-hydroxy-4-(trifluoromethyl)piperidin-1-yl)methyl)phenyl)ethyl)amino)pyrimidin-4-yl)-4-methyloxazolidin-2-one], the values for the IC50 against IDH1 (R132H) mutant and at Mutant IDH1 R132H were 15.9 nM and 10.9 nM, respectively.
